Results published in paper PMC3372625 (Journal of Controlled Release, 2012).

Tests used:
cells = settings: cited from earlier work
H9C2 cells [1] = assay: Reactive oxygen species; format: cell-based; settings: various concentrations of CoCl2; figure 2b
H9C2 cells [2] = assay: Cell viability; format: cell-based; settings: in the presence of CoCl2; figure 2c

Molecule | cytotoxicity (cells) | generation of ROS (H9C2 cells [1]) | CoCl2 toxicity (cell viability) (H9C2 cells [2])
Branched poly(ethylenimine) [PEI] | less than 10% |  | 
[Cl][Co][Cl] [CoCl2, cobalt chloride] |  | dependent on the concentration of CoCl2 up to 25 μmol | no artifact caused by CoCl2 toxicity
